Results published in article PMC8421423, “Cellular model system to dissect the isoform-selectivity of Akt inhibitors” (Nature Communications, 2021).
Several values for one entry are separate records, joined by “and”; a condition that tells them apart may be missing. Identical values can stand only once. Like-named read-outs stand apart in the source and are kept apart here.

Tests used:
parental Ba/F3 cells = experiment: CellTiter-Glo cell viability assay; type: cell-based, murine
Ba/F3^myr-Akt2 cells = experiment: CellTiter-Glo cell viability assay
Ba/F3^myr-Akt1 cells = experiment: CellTiter-Glo cell viability assay; conditions: for Log ratio EC50 [Akt] / EC50 [Akt], Akt1 / Akt2: cell viability assay Ba/F3 myr-Akt cells, log units
Akt1 = Akt1 (Homo sapiens, UniProt P31749); experiment: STK HTRF KinEASE activity-based assay (IC50); conditions: for Log ratio IC50 [Akt] / IC50 [Akt], Akt1 / Akt2: biochemical activity based assay, log units
Sequence of Akt1 (P31749 whole entry): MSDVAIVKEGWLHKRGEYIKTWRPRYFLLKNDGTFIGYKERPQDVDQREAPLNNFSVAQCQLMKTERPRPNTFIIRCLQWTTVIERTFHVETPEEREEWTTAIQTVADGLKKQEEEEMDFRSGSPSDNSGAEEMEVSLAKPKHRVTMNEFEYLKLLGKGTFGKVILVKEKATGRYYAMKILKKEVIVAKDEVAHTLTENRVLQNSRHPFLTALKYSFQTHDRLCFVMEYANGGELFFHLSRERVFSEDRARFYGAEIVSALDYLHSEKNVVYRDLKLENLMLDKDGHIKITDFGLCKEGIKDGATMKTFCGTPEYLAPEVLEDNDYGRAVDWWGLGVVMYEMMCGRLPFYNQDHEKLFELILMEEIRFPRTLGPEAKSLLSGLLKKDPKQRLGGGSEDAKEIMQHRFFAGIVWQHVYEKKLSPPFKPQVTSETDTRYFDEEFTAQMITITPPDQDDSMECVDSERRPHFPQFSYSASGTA
Protocol: The biochemical half maximal inhibitory concentrations (IC50) were determined with the STK HTRF KinEASE assay (Cisbio) according to the manufactor’s instructions. Briefly: 5 µL Kinase solution and 2.5 µL inhibitor solution (8% DMSO in HTRF buffer) were incubated for 1 h before the reaction was started by addition of 2.5 µL starting solution containing ATP and substrate peptide. […] After reaction completion (Akt1: 60 min, Akt2: 20 min, Akt3: 15 min), 10 µL of stop solution were added. […] The quotient of both intensities were recorded at eight different inhibitor concentrations and data fit to a Hill 4-parameter equation with Quattro software suite (Quattro Research GmbH, Martinsried, Germany). Each reaction was performed in duplicates and at least three independent determinations of each IC50 were made.

Akt3 = Akt3 (Homo sapiens, UniProt Q9Y243); experiment: STK HTRF KinEASE activity-based assay (IC50)
Sequence of Akt3 (Q9Y243 whole entry): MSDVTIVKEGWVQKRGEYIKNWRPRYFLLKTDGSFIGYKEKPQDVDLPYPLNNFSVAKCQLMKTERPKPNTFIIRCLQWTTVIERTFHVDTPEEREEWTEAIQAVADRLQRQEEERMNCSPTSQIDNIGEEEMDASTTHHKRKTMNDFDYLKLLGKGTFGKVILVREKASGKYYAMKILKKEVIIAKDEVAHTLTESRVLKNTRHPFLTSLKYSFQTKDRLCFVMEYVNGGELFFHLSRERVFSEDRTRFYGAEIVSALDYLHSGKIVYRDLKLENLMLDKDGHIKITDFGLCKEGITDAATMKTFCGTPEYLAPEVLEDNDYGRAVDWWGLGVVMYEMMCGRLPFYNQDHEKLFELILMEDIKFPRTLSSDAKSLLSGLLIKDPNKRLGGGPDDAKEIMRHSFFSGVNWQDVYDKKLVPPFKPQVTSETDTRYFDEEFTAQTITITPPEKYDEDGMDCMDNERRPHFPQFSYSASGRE

Akt2 = Akt2 (Homo sapiens, UniProt P31751); experiment: STK HTRF KinEASE activity-based assay (IC50)
Sequence of Akt2 (P31751 whole entry): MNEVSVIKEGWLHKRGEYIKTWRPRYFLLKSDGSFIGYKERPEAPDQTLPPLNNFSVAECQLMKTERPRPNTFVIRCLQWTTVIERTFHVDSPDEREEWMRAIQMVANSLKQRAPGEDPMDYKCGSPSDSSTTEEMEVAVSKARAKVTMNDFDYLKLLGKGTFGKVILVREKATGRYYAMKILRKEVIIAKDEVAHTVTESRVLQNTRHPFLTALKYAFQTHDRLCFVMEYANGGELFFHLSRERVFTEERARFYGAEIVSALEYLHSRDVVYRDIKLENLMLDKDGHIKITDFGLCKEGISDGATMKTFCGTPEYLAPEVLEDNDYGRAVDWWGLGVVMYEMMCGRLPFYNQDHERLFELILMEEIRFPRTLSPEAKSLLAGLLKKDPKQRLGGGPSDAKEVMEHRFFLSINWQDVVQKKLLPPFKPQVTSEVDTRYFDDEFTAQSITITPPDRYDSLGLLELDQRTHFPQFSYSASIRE

Ba/F3^myr-Akt3 cells = experiment: CellTiter-Glo cell viability assay; conditions: for Log ratio EC50 [Akt] / EC50 [Akt], Akt3 / Akt2: cell viability assay Ba/F3 myr-Akt cells, log units
[1] = parental cells, single replicates, read-out: CTG BaF3, individual determinations
[2] = read-out: CTG BaF3myr-Akt2, individual determinations, single replicates
[3] = read-out: CTG BaF3myr-Akt1, individual determinations, single replicates
[4] = read-out: CTG BaF3myr-Akt3, individual determinations, single replicates
[5] = Mus musculus, BaF3, parental cells, mean of replicates, read-out: CTG BaF3, Mean
[6] = Mus musculus, read-out: CTG BaF3myr-Akt2, Mean, mean of replicates
[7] = Mus musculus, read-out: CTG BaF3myr-Akt2, individual determinations, single replicates
[8] = Mus musculus, read-out: CTG BaF3myr-Akt1, Mean, mean of replicates
[9] = HTRF IC50 Akt1, Mean, mean of replicates
[10] = HTRF IC50 Akt1, individual determinations, single replicates
[11] = IC50 Akt1, HTRF, ATP at KM, 1 h preincubation
[12] = HTRF IC50 Akt3, Mean, mean of replicates
[13] = HTRF IC50 Akt3, individual determinations, single replicates
[14] = IC50 Akt3, HTRF, ATP at KM, 1 h preincubation
[15] = HTRF IC50 Akt2, Mean, mean of replicates
[16] = HTRF IC50 Akt2, individual determinations, single replicates
[17] = IC50 Akt2, HTRF, ATP at KM, 1 h preincubation
[18] = Mus musculus, read-out: CTG BaF3myr-Akt3, Mean, mean of replicates
[19] = Mus musculus, read-out: CTG BaF3myr-Akt3, individual determinations, single replicates
[20] = Mus musculus, BaF3, parental cells, single replicates, read-out: CTG BaF3, individual determinations
[21] = Mus musculus, read-out: CTG BaF3myr-Akt1, individual determinations, single replicates

| EC50 (Ba/F3^myr-Akt2 cells; [6]) | EC50 (Ba/F3^myr-Akt1 cells; [8]) | IC50 (Akt1; [9]) | IC50 (Akt1; [10]) | IC50 (Akt1; [11]) | IC50 (Akt3; [12]) | IC50 (Akt3; [13]) | IC50 (Akt3; [14]) | IC50 (Akt2; [15]) | IC50 (Akt2; [16]) | IC50 (Akt2; [17]) | EC50 (Ba/F3^myr-Akt3 cells; [18]) | Structure (SMILES) | EC50 (parental Ba/F3 cells; [1]) | EC50 (Ba/F3^myr-Akt2 cells; [2]) | Log ratio EC50 [Akt] / EC50 [Akt], Akt1 / Akt2 (Ba/F3^myr-Akt1 cells) | EC50 (Ba/F3^myr-Akt1 cells; [3]) | Log ratio IC50 [Akt] / IC50 [Akt], Akt1 / Akt2 (Akt1) | Log ratio EC50 [Akt] / EC50 [Akt], Akt3 / Akt2 (Ba/F3^myr-Akt3 cells) | EC50 (Ba/F3^myr-Akt3 cells; [4]) | EC50 (parental Ba/F3 cells; [5]) | other results |
| --- | --- | --- | --- | --- | --- | --- | --- | --- | --- | --- | --- | --- | --- | --- | --- | --- | --- | --- | --- | --- | --- |
|  |  |  |  |  |  |  |  |  |  |  |  | C=CC(=O)Nc1ccc2[nH]c(=O)n(C3CCN(Cc4ccc(-c5ncc(C(=O)O)cc5-c5ccccc5)cc4)CC3)c2c1 [compound 4] | > 30 µM | > 30 µM | 0 | > 30 µM | -0.75 | 0 | > 30 µM |  | EC50 (parental Ba/F3 cells; CTG, parental BaF3 cell line, read-out: EC50 BaF3): > 30 µM; EC50 (parental Ba/F3 cells; parental cells, mean of replicates, read-out: CTG BaF3, Mean): > 30 µM; EC50 BaF3myr-Akt2 (Ba/F3^myr-Akt2 cells; CTG): generally inactive; EC50 (Ba/F3^myr-Akt2 cells; read-out: CTG BaF3myr-Akt2, Mean, mean of replicates): > 30 µM; EC50 (Ba/F3^myr-Akt2 cells; read-out: EC50 BaF3myr-Akt2, CTG): > 30 µM; EC50 BaF3myr-Akt1 (Ba/F3^myr-Akt1 cells; CTG): generally inactive; EC50 (Ba/F3^myr-Akt1 cells; read-out: CTG BaF3myr-Akt1, Mean, mean of replicates): > 30 µM; EC50 (Ba/F3^myr-Akt1 cells; read-out: EC50 BaF3myr-Akt1, CTG): > 30 µM; IC50 (Akt1; read-out: HTRF IC50 Akt1, Mean, mean of replicates): 0.0443 µM; IC50 (Akt1; read-out: HTRF IC50 Akt1, individual determinations, single replicates): 0.0455 µM and 0.0221 µM and 0.0653 µM; IC50 (Akt1; read-out: IC50 Akt1, HTRF, ATP at KM, 1 h preincubation): 0.044 ± 0.018 µM; IC50 (Akt3; read-out: HTRF IC50 Akt3, individual determinations, single replicates): 5.7 µM and 7.19 µM and 8.39 µM; IC50 (Akt3; read-out: IC50 Akt3, HTRF, ATP at KM, 1 h preincubation): 6.45 ± 0.742 µM; IC50 (Akt2; read-out: HTRF IC50 Akt2, Mean, mean of replicates): 0.248 µM; IC50 (Akt2; read-out: HTRF IC50 Akt2, individual determinations, single replicates): 0.189 µM and 0.309 µM and 0.245 µM; IC50 (Akt2; read-out: IC50 Akt2, HTRF, ATP at KM, 1 h preincubation): 0.248 ± 0.049 µM; EC50 BaF3myr-Akt3 (Ba/F3^myr-Akt3 cells; CTG): generally inactive; EC50 (Ba/F3^myr-Akt3 cells; read-out: CTG BaF3myr-Akt3, Mean, mean of replicates): > 30 µM; EC50 (Ba/F3^myr-Akt3 cells; read-out: EC50 BaF3myr-Akt3, CTG): > 30 µM |
| 2.89 µM | 12.7 µM | 1.8 µM | 1.9 µM and 1.84 µM and 1.65 µM | 1.8 ± 0.105 µM | 1.51 µM | 2.03 µM and 1.41 µM and 1.09 µM | 1.51 ± 0.389 µM | 0.511 µM | 0.523 µM and 0.43 µM and 0.581 µM | 0.511 ± 0.062 µM | 7.44 µM | C=CC(=O)Nc1ccc2[nH]c(=O)n(C3CCN(Cc4ccc(-c5ncc(Cc6ccc(N)cc6)cc5-c5ccccc5)cc4)CC3)c2c1 [compound 19] | 6.98 µM and 7.49 µM and 18.8 µM | 3.83 µM and 2.66 µM | 0.64 | 19.7 µM and 8.66 µM and 9.89 µM | 0.55 | -0.41 | 7.03 µM and 8.07 µM | 12.5 µM | EC50 (Ba/F3^myr-Akt2 cells; [7]): 2.19 µM; loss of potency of the anilinic CAAI (Akt3; Akt3, biochemical IC50): 10 fold; EC50 (Ba/F3^myr-Akt3 cells; [19]): 6.61 µM |
| 3.05 µM | 8.29 µM | 1.28 µM | 1.29 µM (2×) and 1.26 µM | 1.28 ± 0.018 µM | 0.607 µM | 0.64 µM and 0.477 µM and 0.703 µM | 0.607 ± 0.095 µM | 0.251 µM | 0.27 µM and 0.352 µM and 0.233 µM | 0.251 ± 0.018 µM | 5.29 µM | C=CC(=O)Nc1ccc2[nH]c(=O)n(C3CCN(Cc4ccc(-c5ncc(Cc6cnn(C)c6)cc5-c5ccccc5)cc4)CC3)c2c1 [compound 12] | > 30 µM and 26.7 µM | 2.1 µM and 3.52 µM | 0.43 | 10.1 µM and 7.32 µM | 0.71 | -0.24 | 9.47 µM and 3.28 µM and 3.12 µM |  | EC50 (parental Ba/F3 cells; [20]): 17.5 µM; EC50 (Ba/F3^myr-Akt2 cells; [7]): 3.04 µM; EC50 (Ba/F3^myr-Akt1 cells; [21]): 7.5 µM |

| Structure (SMILES) | EC50 (Ba/F3^myr-Akt2 cells; [6]) | EC50 (Ba/F3^myr-Akt1 cells; [8]) | IC50 (Akt1; [9]) | IC50 (Akt1; [10]) | IC50 (Akt1; [11]) | IC50 (Akt3; [12]) | IC50 (Akt3; [13]) | IC50 (Akt3; [14]) | IC50 (Akt2; [15]) | IC50 (Akt2; [16]) | IC50 (Akt2; [17]) | EC50 (Ba/F3^myr-Akt3 cells; [18]) | EC50 (parental Ba/F3 cells; [1]) | EC50 (Ba/F3^myr-Akt2 cells; [2]) | Log ratio EC50 [Akt] / EC50 [Akt], Akt1 / Akt2 (Ba/F3^myr-Akt1 cells) | EC50 (Ba/F3^myr-Akt1 cells; [3]) | Log ratio IC50 [Akt] / IC50 [Akt], Akt1 / Akt2 (Akt1) | Log ratio EC50 [Akt] / EC50 [Akt], Akt3 / Akt2 (Ba/F3^myr-Akt3 cells) | EC50 (Ba/F3^myr-Akt3 cells; [4]) | EC50 (parental Ba/F3 cells; [5]) | other results |
| --- | --- | --- | --- | --- | --- | --- | --- | --- | --- | --- | --- | --- | --- | --- | --- | --- | --- | --- | --- | --- | --- |
| C=CC(=O)Nc1ccc2[nH]c(=O)n(C3CCN(Cc4ccc(-c5ncc(C(=O)OC)cc5-c5ccccc5)cc4)CC3)c2c1 [compound 5] | 2.71 µM | 4.92 µM | 0.0355 µM | 0.038 µM and 0.0373 µM and 0.0312 µM | 0.035 ± 0.004 µM | 3.4 µM | 3.96 µM and 3.22 µM and 3.01 µM | 3.4 ± 0.406 µM | 0.116 µM | 0.119 µM and 0.116 µM and 0.114 µM | 0.116 ± 0.002 µM | 7.65 µM | 12.7 µM and 17.6 µM | 3.75 µM and 1.35 µM and 1.68 µM | 0.26 | 4.17 µM and 4.75 µM | -0.52 | -0.45 | 7.85 µM and 7.37 µM | 16.3 µM | EC50 (parental Ba/F3 cells; [20]): 18.7 µM; EC50 (Ba/F3^myr-Akt1 cells; [21]): 5.83 µM; EC50 (Ba/F3^myr-Akt3 cells; [19]): 7.73 µM |
